Reference: patent publication US8148422B2, “Sulfonamides as TRPM8 modulators” (Janssen Pharmaceutica, NV, priority 2008, dated 2012)

Molecular target: T1, canine TRPM8 (Canis lupus familiaris, UniProt Q1A7N1)
T1 construct: expressed in transfected cells
Experiment: In vitro canine TRPM8 functional assay (Ca2+-sensitive fluorescent dye, FLIPR or FDSS, icilin challenge)
Type: cell-based
Details: HEK293 cells stably expressing canine TRPM8; for inhibition at 0.2 µM: 0.2 μM compound, icilin challenge; for IC50: icilin at approx. 80% maximal response, eight-point dose-response, single determinations unless otherwise noted, read-out: IC50
Procedure: The functional activity of compounds of the formula (I) was determined by measuring changes in intracellular calcium concentration using a Ca^2+-sensitive fluorescent dye. The changes in fluorescent signal were monitored by a fluorescence plate reader, either a FLIPR™ (Molecular Devices) or FDSS (Hamamatsu).
At 24 hrs prior to assay, HEK293 cells stably expressing canine TRPM8 were seeded in culture medium in black wall, clear-base poly-D-lysine coated 384-well plates (BD Biosciences, NJ, USA) and grown overnight in 5% CO2 at 37° C. On assay day, growth media was removed and cells were loaded with Calcium 3 Dye (Molecular Devices) for 35 min at 37° C., under 5% CO2 and then for 25 min at room temperature and atmosphere. Subsequently, cells were tested for agonist-induced increases in intracellular Ca^2+ levels using FLIPR™ or FDSS. Cells were challenged with a compound of the Formula (I) (at varying concentrations) and intracellular Ca^2+ was measured for 5 min prior to the addition of icilin to all wells to achieve a final concentration that produces approximately an 80% maximal response. EC50 or IC50 values for compounds of the present invention were determined from eight-point dose-response studies. Curves were generated using the average of quadruplicate wells for each data point.

T1 sequence (Q1A7N1 1-1104): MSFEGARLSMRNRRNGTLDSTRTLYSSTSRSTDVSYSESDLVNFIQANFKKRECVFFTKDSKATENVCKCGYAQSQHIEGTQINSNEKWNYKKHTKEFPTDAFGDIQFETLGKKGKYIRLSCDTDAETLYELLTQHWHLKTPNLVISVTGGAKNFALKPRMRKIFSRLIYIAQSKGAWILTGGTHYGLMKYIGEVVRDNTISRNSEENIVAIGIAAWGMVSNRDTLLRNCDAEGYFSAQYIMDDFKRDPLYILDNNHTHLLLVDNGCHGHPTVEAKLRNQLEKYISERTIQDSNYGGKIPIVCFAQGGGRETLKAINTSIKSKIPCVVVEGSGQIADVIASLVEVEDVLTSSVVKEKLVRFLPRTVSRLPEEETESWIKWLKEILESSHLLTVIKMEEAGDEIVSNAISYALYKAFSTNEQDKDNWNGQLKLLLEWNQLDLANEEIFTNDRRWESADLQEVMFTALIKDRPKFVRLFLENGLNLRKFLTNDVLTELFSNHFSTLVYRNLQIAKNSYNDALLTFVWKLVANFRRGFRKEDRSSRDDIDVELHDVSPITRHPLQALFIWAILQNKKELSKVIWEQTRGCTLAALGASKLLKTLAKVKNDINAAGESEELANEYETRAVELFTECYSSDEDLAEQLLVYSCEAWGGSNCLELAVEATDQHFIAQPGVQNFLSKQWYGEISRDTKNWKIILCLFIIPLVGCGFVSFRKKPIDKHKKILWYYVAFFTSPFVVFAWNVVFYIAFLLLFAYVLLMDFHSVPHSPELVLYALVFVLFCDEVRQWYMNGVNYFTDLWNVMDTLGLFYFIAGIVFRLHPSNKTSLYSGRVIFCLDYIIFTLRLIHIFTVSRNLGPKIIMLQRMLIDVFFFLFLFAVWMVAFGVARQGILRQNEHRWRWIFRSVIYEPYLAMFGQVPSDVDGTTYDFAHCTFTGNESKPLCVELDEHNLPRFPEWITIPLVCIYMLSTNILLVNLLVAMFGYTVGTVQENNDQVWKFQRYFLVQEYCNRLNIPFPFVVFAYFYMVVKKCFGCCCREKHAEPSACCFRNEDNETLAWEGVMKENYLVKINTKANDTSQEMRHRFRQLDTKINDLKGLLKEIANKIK

Row | SMILES | inhibition at 0.2 µM [%] | IC50 [nM]
1 | CCCCN(CCCC)CCS(=O)(=O)N(Cc1ccc(OC(F)(F)F)cc1)c1ccc2ccccc2c1 [Cpd 56, N-(Naphth-2-yl)-N-(4-trifluoromethoxy-benzyl)-2-(dibutylamino)ethylsulfonamide] | 47 | 
2 | CN(CCS(=O)(=O)N(Cc1ccc(OC(F)(F)F)cc1)c1ccc2ccccc2c1)Cc1ccccc1 [Cpd 57, N-(Naphth-2-yl)-N-(4-trifluoromethoxy-benzyl)-2-(benzyl-methylamino)ethylsulfonamide] | 89 | 52
3 | CC(=O)N1CCN(CCS(=O)(=O)N(Cc2ccc(OC(F)(F)F)cc2)c2ccc3ccccc3c2)CC1 [Cpd 58, N-(Naphth-2-yl)-N-(4-trifluoromethoxy-benzyl)-2-(4-acetylpiperazin-1-yl)ethylsulfonamide] | 67 | 
4 | Cc1c(N(Cc2ccc(OC(F)(F)F)cc2)S(=O)(=O)CCN(C(C)C)C(C)C)sc2ccccc12 [Cpd 59, N-(3-Methylbenzo[b]thiophen-2-yl)-N-(4-trifluoromethoxy-benzyl)-2-(di-isopropylamino)ethylsulfonamide] | 100 | 8
5 | Cc1c(N(Cc2ccc(OC(F)(F)F)cc2)S(=O)(=O)CCNCC(F)(F)F)sc2ccccc12 [Cpd 60, N-(3-Methylbenzo[b]thiophen-2-yl)-N-(4-trifluoromethoxy-benzyl)-2-(2,2,2-trifluoroethylamino)ethylsulfonamide] | 100 | 14
6 | CN(CCS(=O)(=O)N(Cc1ccc(OC(F)(F)F)cc1)c1sc2ccccc2c1Br)Cc1ccccc1 [Cpd 61, N-(3-Bromobenzo[b]thiophen-2-yl)-N-(4-trifluoromethoxy-benzyl)-2-(benzyl-methylamino)ethylsulfonamide] | 102 | 28
7 | CCCCN(CCCC)CCS(=O)(=O)N(Cc1ccc(OC(F)(F)F)cc1)c1sc2ccccc2c1Br [Cpd 62, N-(3-Bromobenzo[b]thiophen-2-yl)-N-(4-trifluoromethoxy-benzyl)-2-(di-n-butylamino)ethylsulfonamide] | 96 | 38
8 | CC(C)CN(CCS(=O)(=O)N(Cc1ccc(OC(F)(F)F)cc1)c1sc2ccccc2c1Br)CC(C)C [Cpd 63, N-(3-Bromobenzo[b]thiophen-2-yl)-N-(4-trifluoromethoxy-benzyl)-2-(di-iso-butylamino)ethylsulfonamide] | 101 | 6
9 | O=S(=O)(CCN1CCCCC1)N(Cc1ccc(OC(F)(F)F)cc1)c1sc2ccccc2c1Br [Cpd 64, N-(3-Bromobenzo[b]thiophen-2-yl)-N-(4-trifluoromethoxy-benzyl)-2-(N-piperidinyl)ethylsulfonamide] | 101 | 27
10 | CC(=O)N1CCN(CCS(=O)(=O)N(Cc2ccc(OC(F)(F)F)cc2)c2sc3ccccc3c2Br)CC1 [Cpd 65, N-(3-Bromobenzo[b]thiophen-2-yl)-N-(4-trifluoromethoxy-benzyl)-2-(4-acetyl-1-piperazinyl)ethylsulfonamide] | 101 | 41
11 | O=S(=O)(CCN1CCSCC1)N(Cc1ccc(OC(F)(F)F)cc1)c1sc2ccccc2c1Br [Cpd 66, N-(3-Bromobenzo[b]thiophen-2-yl)-N-(4-trifluoromethoxy-benzyl)-2-(thiomorpholin-4-yl)ethylsulfonamide] | 100 | 29
12 | O=S(=O)(CCN1CCCC(F)(F)C1)N(Cc1ccc(OC(F)(F)F)cc1)c1sc2ccccc2c1Br [Cpd 67, N-(3-Bromobenzo[b]thiophen-2-yl)-N-(4-trifluoromethoxy-benzyl)-2-(3,3-difluoropiperidin-1-yl)ethylsulfonamide] | 102 | 9
13 | O=S(=O)(CCN1CCC(F)(F)C1)N(Cc1ccc(OC(F)(F)F)cc1)c1sc2ccccc2c1Br [Cpd 68, N-(3-Bromobenzo[b]thiophen-2-yl)-N-(4-trifluoromethoxy-benzyl)-2-(3,3-difluoropyrrolidin-1-yl)ethylsulfonamide] | 102 | 72
14 | Cc1c(N(Cc2ccc(F)cc2)S(=O)(=O)CCN2CCCC(F)(F)C2)sc2ccccc12 [Cpd 69, N-(3-Methyl-benzo[b]thiophen-2-yl)-N-(4-fluoro-benzyl)-2-(3,3-difluoropiperidin-1-yl)-ethylsulfonamide] | 99 | 12
15 | Cc1c(N(Cc2ccc(F)c(C(F)(F)F)c2)S(=O)(=O)CCN2CCCC(F)(F)C2)sc2ccccc12 [Cpd 70, N-(3-Methylbenzo[b]thiophen-2-yl)-N-(4-fluoro-3-trifluoromethyl-benzyl)-2-(3,3-difluoropiperidin-1-yl)ethylsulfonamide] | 100 | 4
16 | Cc1c(N(Cc2ccc(OC(F)(F)F)cc2)S(=O)(=O)CCN2CCC[C@H]2C(F)(F)F)sc2ccccc12 [Cpd 71, N-(3-Methylbenzo[b]thiophen-2-yl)-N-(4-trifluoromethoxy-benzyl)-2-[2(S)-trifluoromethyl-pyrrolidin-1-yl]ethylsulfonamide] | 100 | 4
17 | Cc1c(N(Cc2ccc(OC(F)(F)F)cc2)S(=O)(=O)CCN2CCC[C@@H]2C(F)(F)F)sc2ccccc12 [Cpd 72, N-(3-Methylbenzo[b]thiophen-2-yl)-N-(4-trifluoromethoxy-benzyl)-2-[2(R)-trifluoromethyl-pyrrolidin-1-yl]ethylsulfonamide] | 100 | 10
18 | Cc1c(N(Cc2ccc(OC(F)(F)F)cc2)S(=O)(=O)CCNCC(C)C)sc2ccccc12 [Cpd 73, N-(3-Methylbenzo[b]thiophen-2-yl)-N-(4-trifluoromethoxy-benzyl)-2-(isobutylamino)ethylsulfonamide] | 19 | 
19 | Cc1c(N(CCC2CC2)S(=O)(=O)CCN(C)Cc2ccccc2)sc2ccccc12 [Cpd 75, N-(3-Methylbenzo[b]thiophen-2-yl)-N-(2-cyclopropyl-ethyl)-2-(benzyl-methylamino)ethylsulfonamide] | 89 | 59

The next lines start with the values.

Row | inhibition at 0.2 µM [%] | IC50 [nM] | SMILES
20 | 99 | 25 | Cc1c(N(Cc2ccc(F)cc2)S(=O)(=O)CCN(CC(C)C)CC(C)C)sc2ccccc12 [Cpd 76, N-(3-Methylbenzo[b]thiophen-2-yl)-N-(4-fluoro-benzyl)-2-(di-iso-butylamino)ethylsulfonamide]
21 | 97 | 49 | Cc1c(N(Cc2ccc(F)cc2)S(=O)(=O)CCN(C)Cc2ccccc2)sc2ccccc12 [Cpd 77, N-(3-Methylbenzo[b]thiophen-2-yl)-N-(4-fluoro-benzyl)-2-(benzyl-methylamino)ethylsulfonamide]
22 | 98 | 37 | Cc1c(N(CCCCC(F)(F)F)S(=O)(=O)CCN(C)Cc2ccccc2)sc2ccccc12 [Cpd 79, N-(3-Methylbenzo[b]thiophen-2-yl)-N-(5,5,5-trifluoro-n-pent-1-yl)-2-(benzyl-methylamino)ethylsulfonamide]
23 | 101 | 36 | Cc1c(N(Cc2ccc(F)c(F)c2)S(=O)(=O)CCN(C)Cc2ccccc2)sc2ccccc12 [Cpd 81, N-(3-Methylbenzo[b]thiophen-2-yl)-N-(3,4-difluoro-benzyl)-2-(benzyl-methylamino)ethylsulfonamide]
24 | 100 | 16 | CCCN(CCS(=O)(=O)N(Cc1ccc(OC(F)(F)F)cc1)c1sc2ccccc2c1C)CC(C)C [Cpd 82, N-(3-Methylbenzo[b]thiophen-2-yl)-N-(4-trifluoromethoxy-benzyl)-2-(isobutyl-propylamino)ethylsulfonamide]
25 | 99 | 17 | CCN(CCS(=O)(=O)N(Cc1ccc(OC(F)(F)F)cc1)c1sc2ccccc2c1C)CC(C)C [Cpd 83, N-(3-Methylbenzo[b]thiophen-2-yl)-N-(4-trifluoromethoxy-benzyl)-2-(isobutyl-ethylamino)ethylsulfonamide]
26 | 97 | 72 | CCOC(=O)C1CCN(CCS(=O)(=O)N(CCC2CC2)c2sc3ccccc3c2C)CC1 [Cpd 84, N-(3-Methylbenzo[b]thiophen-2-yl)-N-(2-cyclopropyl-ethyl)-2-(4-carboethoxypiperidin-1-yl)ethylsulfonamide]
27 | 77 | 81 | CCOC(=O)C1CCN(CCS(=O)(=O)N(CCCCC(F)(F)F)c2sc3ccccc3c2C)CC1 [Cpd 85, N-(3-Methylbenzo[b]thiophen-2-yl)-N-(5,5,5-trifluoropent-1-yl)-2-(4-carboethoxypiperidin-1-yl)ethylsulfonamide]
28 | 34 |  | Cc1c(N(CCCCC(F)(F)F)S(=O)(=O)CCN2CCC(C(=O)O)CC2)sc2ccccc12 [Cpd 86, N-(3-Methylbenzo[b]thiophen-2-yl)-N-(5,5,5-trifluoropent-1-yl)-2-(4-carboxypiperidin-1-yl)ethylsulfonamide]
29 | 29 |  | Cc1c(N(CCC2CC2)S(=O)(=O)CCN2CCC(C(=O)O)CC2)sc2ccccc12 [Cpd 87, N-(3-Methylbenzo[b]thiophen-2-yl)-N-(2-cyclopropylethyl)-2-(4-carboxypiperidin-1-yl)ethylsulfonamide]
30 | 91 | 59 | CC(=O)N(CCS(=O)(=O)N(CCCCC(F)(F)F)c1sc2ccccc2c1C)CC(C)C [Cpd 88, N-(3-Methylbenzo[b]thiophen-2-yl)-N-(5,5,5-trifluoro-n-pent-1-yl)-2-(N-acetyl-isobutylamino)ethylsulfonamide]
